Source: US20190105381A1, “METHOD FOR PREPARING VIRAL PARTICLES WITH CYCLIC DINUCLEOTIDE AND USE OF SAID PARTICLES FOR TREATING CANCER” (priority 2016, published 2019)

Key:
HEK293 cells = type: cell-based, human; conditions: for effect on IFN induction by HIV-1-GFP: cGAS-reconstituted producer cells treated during virus preparation, 20 μM GW4869, 60 μM Ac-DEVD-CHO; for IFN response in target cells under pharmacological inhibition: cells treated 1 hour prior to infection, 5 μM, MOI=1
[1] = system: Ova-specific CD8+ T cells; assay: CD8+ T cell responses after subcutaneous immunization (tetramer, IFN-g ELISPOT); type: in vivo, mice; conditions: cGAMP at a far higher dose of cGAMP
[2] = system: IFNβ promoter reporter (p125-F-Luc); type: cell-based, human; conditions: HEK293 cells transfected with 2 μg 2′-3′-cGAMP, 24 hours

Compound	effect on IFN induction by HIV-1-GFP (HEK293 cells)	IFN response in target cells under pharmacological inhibition (HEK293 cells)	other results
O=C(/C=C/c1ccc(/C=C/C(=O)Nc2ccc(C3=NCCN3)cc2)cc1)Nc1ccc(C2=NCCN2)cc1 [GW4869]	did not diminish IFN induction	–	–
Nc1nc2c(ncn2[C@@H]2O[C@@H]3COP(=O)(O)O[C@H]4[C@@H](O)[C@H](n5cnc6c(N)ncnc65)O[C@@H]4COP(=O)(O)O[C@@H]2[C@@H]3O)c(=O)[nH]1 [cGAMP, 2′-3′-cyclic GMP-AMP]	–	–	tumor-specific T cell response [1]: not able to significantly induce; IFN induction in response to cGAMP [2]: induce IFN
Cc1ccnc2c1NC(=O)c1cccnc1N2C1CC1 [nevirapine]	–	independent of reverse transcription and integration	–
Cc1nnc(C(=O)NC(C)(C)c2nc(C(=O)NCc3ccc(F)cc3)c(O)c(=O)n2C)o1 [raltegravir]	–	independent of reverse transcription and integration	–
Ac-DEVD-CHO	did not diminish IFN induction	–	–
